Assay results from US8183238B2, “Bicyclic and tricyclic compounds as KAT II inhibitors” (priority 2009, dated 2012).
Structures can show the parent of a compound that is named as a salt.

biological target: human KAT II (hKAT II) enzyme (Homo sapiens, UniProt Q8N5Z0); assay: KAT II Inhibition Spectra Assay; assay type: biochemical; details: Table 5; hKAT II, decrease in OD370, 37° C., 15-20 h; read-out: KATII IC50
Procedure: Formation of kynurenic acid (KYNA) is indirectly assessed by a decrease in light absorbance at 370 nm (OD370) as the L-kynurenine (KYN) substrate is converted by the human KAT II (hKAT II) enzyme into KYNA. An inhibitor would therefore inhibit the decrease in OD370.
The protocol was performed by placing the following reagents into a Costar 384 well black plate (30 μL total assay volume/well): • 10 μL of 3× concentrated compound; • 10 μL of 3× concentrated substrate mix (BGG (Sigma G-5009); 3 mM L-Kynurenine in 150 mM Tris Acetate (Sigma K3750); 3 mM α-ketoglutaric acid in 150 mM Tris Acetate (Sigma K2010); and 210 μM pyridoxal 5-phosphate (PLP) in 150 mM Tris Acetate (Sigma 9255)); and • 10 μL of 3× concentrated enzyme (15 nM enzyme in 150 mM Tris Acetate with 0.3% bovine serum).
Plates were sealed and incubated at 37° C. for 15-20 h before reading OD370 on a SpectraMax Plus plate reader. IC50s were generated by comparing the efficacy of compounds across a concentration range to inhibit a reduction in the OD370 value relative to assay wells with DMSO added in place of concentrated compound.

human KAT II (hKAT II) enzyme, sequence (Q8N5Z0 30-425): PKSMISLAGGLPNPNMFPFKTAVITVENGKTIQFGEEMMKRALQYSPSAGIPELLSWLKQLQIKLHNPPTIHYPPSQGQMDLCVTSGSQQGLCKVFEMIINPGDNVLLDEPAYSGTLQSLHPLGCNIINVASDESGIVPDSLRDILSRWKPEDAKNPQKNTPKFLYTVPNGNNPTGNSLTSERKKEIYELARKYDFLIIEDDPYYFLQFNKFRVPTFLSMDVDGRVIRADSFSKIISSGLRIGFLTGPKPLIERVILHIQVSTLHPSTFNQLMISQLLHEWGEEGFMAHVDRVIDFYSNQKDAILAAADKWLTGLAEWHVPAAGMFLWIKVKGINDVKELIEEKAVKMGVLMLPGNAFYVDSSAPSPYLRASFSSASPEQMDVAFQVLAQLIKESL

Row | IC50 [µM] | SMILES
1 | 0.0527 | NC1Cc2cccnc2N(O)C1=O (stereo not shown) [Example 1, 3-amino-1-hydroxy-3,4-dihydro-1,8-naphthyridin-2(1H)-one, trifluoroacetate salt]
2 | 0.0234 | NC1Cc2cc(F)ccc2N(O)C1=O (stereo not shown) [Example 2, 3-amino-6-fluoro-1-hydroxy-3,4-dihydroquinolin-2(1H)-one, hydrochloride salt]
3 | 0.204 | NC1Cc2cccc(C(F)(F)F)c2N(O)C1=O (stereo not shown) [Example 3, 3-amino-1-hydroxy-8-(trifluoromethyl)-3,4-dihydroquinolin-2(1H)-one]
4 | 0.131 | N[C@@H]1Cc2ccc(Br)cc2N(O)C1=O [Example 5, (3R)-3-amino-7-bromo-1-hydroxy-3,4-dihydroquinolin-2(1H)-one]
5 | 0.0254 | N[C@H]1Cc2ccc(Br)cc2N(O)C1=O [Example 6, (3S)-3-amino-7-bromo-1-hydroxy-3,4-dihydroquinolin-2(1H)-one]
6 | 0.608 | Cc1cc(Cl)cc2c1N(O)C(=O)C(N)C2 (stereo not shown) [Example 8, 3-amino-6-chloro-1-hydroxy-8-methyl-3,4-dihydroquinolin-2(1H)-one]
7 | 2.23 | NC1Cc2ncccc2N(O)C1=O (stereo not shown) [Example 9, 3-amino-1-hydroxy-3,4-dihydro-1,5-naphthyridin-2(1H)-one, dihydrochloride salt]
8 | 0.0737 | NC1Cc2cc(C(F)(F)F)ccc2N(O)C1=O (stereo not shown) [Example 10, 3-amino-1-hydroxy-6-(trifluoromethyl)-3,4-dihydroquinolin-2(1H)-one, hydrochloride salt]
9 | 0.121 | NC1Cc2c(ccc3ccccc23)N(O)C1=O (stereo not shown) [Example 11, 2-amino-4-hydroxy-1,2-dihydrobenzo[f]quinolin-3(4H)-one]
10 | 0.379 | COc1cccc2c1C[C@H](N)C(=O)N2O [Example 12, (3S)-3-amino-1-hydroxy-5-methoxy-3,4-dihydroquinolin-2(1H)-one, hydrochloride salt]
11 | 0.0573 | COc1cccc(-c2ccc3c(c2)N(O)C(=O)C(N)C3)c1 (stereo not shown) [Example 13, 3-amino-1-hydroxy-7-(3-methoxyphenyl)-3,4-dihydroquinolin-2(1H)-one, hydrochloride salt]
12 | 0.0111 | NC1Cc2ccc(Cl)cc2N(O)C1=O (stereo not shown) [Example 15]
13 | 0.0227 | NC1Cc2cc(Cl)ccc2N(O)C1=O (stereo not shown) [Example 16]
14 | 0.0951 | Cc1ccc2c(c1)N(O)C(=O)C(N)C2 (stereo not shown) [Example 17]
15 | 0.139 | Cc1ccc2c(c1)CC(N)C(=O)N2O (stereo not shown) [Example 18]
16 | 3.04 | Cc1cccc2c1N(O)C(=O)C(N)C2 (stereo not shown) [Example 19]
17 | 0.127 | N[C@H]1Cc2cccc(C(F)(F)F)c2N(O)C1=O [Example 20]
18 | 0.0462 | NC1Cc2cc(C3CC3)ccc2N(O)C1=O (stereo not shown) [Example 21]
19 | 0.0452 | N[C@H]1Cc2c(Cl)cccc2N(O)C1=O [Example 22]
20 | 0.0653 | NC1Cc2cc(Cl)cc(C(F)(F)F)c2N(O)C1=O (stereo not shown) [Example 23]
21 | 0.05 | N[C@H]1Cc2cc(Br)cc(C(F)(F)F)c2N(O)C1=O [Example 24]
22 | 0.0484 | CC(C)Oc1ccc2c(c1)N(O)C(=O)[C@@H](N)C2 [Example 25]
23 | 0.088 | CCc1ccc2c(c1)N(O)C(=O)C(N)C2 (stereo not shown) [Example 26]
24 | 0.0519 | N[C@H]1Cc2c(F)cccc2N(O)C1=O [Example 27]
25 | 1.33 | N[C@H]1Cc2cc(-c3ccc(C(F)(F)F)cc3)cc(C(F)(F)F)c2N(O)C1=O [Example 28]
26 | 0.0105 | COc1ccc2c(c1)N(O)C(=O)C(N)C2 (stereo not shown) [Example 29]
27 | 0.0237 | NC1Cc2ccc(C3CC3)cc2N(O)C1=O (stereo not shown) [Example 30]

Row | IC50 [µM] | SMILES
28 | 0.0497 | N[C@H]1Cc2cc(Cl)cc(F)c2N(O)C1=O [Example 31]
29 | 0.0359 | N[C@H]1Cc2cc(OC(F)(F)F)ccc2N(O)C1=O [Example 32]
30 | 0.033 | N#Cc1cccc2c1N(O)C(=O)C(N)C2 (stereo not shown) [Example 33]
31 | 0.0356 | N[C@H]1Cc2ccc(OCc3ccccc3)cc2N(O)C1=O [Example 34]
32 | 0.0492 | N[C@H]1Cc2cc(Cl)cc(C(F)(F)F)c2N(O)C1=O [Example 35]
33 | 0.0793 | N[C@H]1Cc2cccc(F)c2N(O)C1=O [Example 36]
34 | 0.0341 | N[C@H]1Cc2cccc(OC(F)(F)F)c2N(O)C1=O [Example 37]
35 | 0.133 | NC1Cc2ccc(-c3cccc(OC(F)(F)F)c3)cc2N(O)C1=O (stereo not shown) [Example 38, 3-amino-1-hydroxy-7-[3-(trifluoromethoxy)phenyl]-3,4-dihydroquinolin-2(1H)-one, trifluoroacetate salt]
36 | 0.136 | Cc1ccc(-c2ccc3c(c2)N(O)C(=O)C(N)C3)cc1 (stereo not shown) [Example 39, 3-amino-1-hydroxy-7-(4-methylphenyl)-3,4-dihydroquinolin-2(1H)-one, trifluoroacetate salt]
37 | 0.122 | NC1Cc2ccc(-c3cccc(F)c3F)cc2N(O)C1=O (stereo not shown) [Example 40, 3-amino-7-(2,3-difluorophenyl)-1-hydroxy-3,4-dihydroquinolin-2(1H)-one, trifluoroacetate salt]
38 | 0.257 | NC1Cc2ccc(-c3ccccc3OC(F)(F)F)cc2N(O)C1=O (stereo not shown) [Example 41, 3-amino-1-hydroxy-7-[2-(trifluoromethoxy)phenyl]-3,4-dihydroquinolin-2(1H)-one, trifluoroacetate salt]
39 | 0.101 | NC1Cc2ccc(-c3ccccc3)cc2N(O)C1=O (stereo not shown) [Example 42, 3-amino-1-hydroxy-7-phenyl-3,4-dihydroquinolin-2(1H)-one, trifluoroacetate salt]
40 | 0.133 | NC1Cc2ccc(-c3cc(Cl)ccc3Cl)cc2N(O)C1=O (stereo not shown) [Example 43, 3-amino-7-(2,5-dichlorophenyl)-1-hydroxy-3,4-dihydroquinolin-2(1H)-one, trifluoroacetate salt]
41 | 0.118 | NC1Cc2ccc(-c3ccc(F)c(F)c3)cc2N(O)C1=O (stereo not shown) [Example 44, 3-amino-7-(3,4-difluorophenyl)-1-hydroxy-3,4-dihydroquinolin-2(1H)-one, trifluoroacetate salt]
42 | 0.235 | NC1Cc2ccc(-c3ccccc3Cl)cc2N(O)C1=O (stereo not shown) [Example 45, 3-amino-7-(2-chlorophenyl)-1-hydroxy-3,4-dihydroquinolin-2(1H)-one, trifluoroacetate salt]
43 | 0.128 | NC1Cc2ccc(-c3cccc(C(F)(F)F)c3)cc2N(O)C1=O (stereo not shown) [Example 46, 3-amino-1-hydroxy-7-[3-(trifluoromethyl)phenyl]-3,4-dihydroquinolin-2(1H)-one, trifluoroacetate salt]
44 | 0.118 | Cc1cccc(-c2ccc3c(c2)N(O)C(=O)C(N)C3)c1C (stereo not shown) [Example 47, 3-amino-7-(2,3-dimethylphenyl)-1-hydroxy-3,4-dihydroquinolin-2(1H)-one, trifluoroacetate salt]
45 | 0.523 | CN(C)c1ccc(-c2ccc3c(c2)N(O)C(=O)C(N)C3)cn1 (stereo not shown) [Example 48, 3-amino-7-[6-(dimethylamino)pyridin-3-yl]-1-hydroxy-3,4-dihydroquinolin-2(1H)-one, trifluoroacetate salt]
46 | 0.105 | COc1ccc(-c2ccc3c(c2)N(O)C(=O)C(N)C3)cc1F (stereo not shown) [Example 49, 3-amino-7-(3-fluoro-4-methoxyphenyl)-1-hydroxy-3,4-dihydroquinolin-2(1H)-one, trifluoroacetate salt]
47 | 0.103 | NC1Cc2ccc(-c3cc(F)ccc3F)cc2N(O)C1=O (stereo not shown) [Example 50, 3-amino-7-(2,5-difluorophenyl)-1-hydroxy-3,4-dihydroquinolin-2(1H)-one, trifluoroacetate salt]
48 | 0.101 | NC1Cc2ccc(-c3ccco3)cc2N(O)C1=O (stereo not shown) [Example 51, 3-amino-7-(2-furyl)-1-hydroxy-3,4-dihydroquinolin-2(1H)-one, trifluoroacetate salt]
49 | 0.139 | NC1Cc2ccc(-c3cccc(Cl)c3)cc2N(O)C1=O (stereo not shown) [Example 52, 3-amino-7-(3-chlorophenyl)-1-hydroxy-3,4-dihydroquinolin-2(1H)-one, trifluoroacetate salt]
50 | 0.206 | NC1Cc2ccc(-c3ccc(C(F)(F)F)cc3)cc2N(O)C1=O (stereo not shown) [Example 53, 3-amino-1-hydroxy-7-[4-(trifluoromethyl)phenyl]-3,4-dihydroquinolin-2(1H)-one, trifluoroacetate salt]
51 | 0.137 | NC1Cc2ccc(-c3cc(Cl)ccc3F)cc2N(O)C1=O (stereo not shown) [Example 54, 3-amino-7-(5-chloro-2-fluorophenyl)-1-hydroxy-3,4-dihydroquinolin-2(1H)-one, trifluoroacetate salt]
52 | 0.141 | CC(C)c1ccc(-c2ccc3c(c2)N(O)C(=O)C(N)C3)cc1 (stereo not shown) [Example 55, 3-amino-1-hydroxy-7-(4-isopropylphenyl)-3,4-dihydroquinolin-2(1H)-one, trifluoroacetate salt]
53 | 0.0911 | COc1ccc(-c2ccc3c(c2)N(O)C(=O)C(N)C3)cc1 (stereo not shown) [Example 56, 3-amino-1-hydroxy-7-(4-methoxyphenyl)-3,4-dihydroquinolin-2(1H)-one, trifluoroacetate salt]

Row | SMILES | IC50 [µM]
54 | C[C@H]1c2ccccc2N(O)C(=O)[C@H]1N [Example 7, (3S,4S)-3-amino-1-hydroxy-4-methyl-3,4-dihydroquinolin-2(1H)-one, hydrochloride salt] | 3.28
55 | N[C@@H]1Cc2ccccc2N(O)C1=O [Example 14] | 0.27
